“And” between values parts separate entries of the source, which are not always exact repeats. Equal entries are not always repeated. Where two headings read alike, the source gives them in different places.
Tests used:
[1] = Long-term administration on DIO mice: weight, food intake, tolerance; details: for weight after the drug was administrated for 28 days: individual animals
Procedure: (§3) A solution with a certain concentration was prepared from the crystal form B of the phosphate, and the administration volume was 10 mL/kg.
(§4) Experimental animals: C57BL16 mice aged for 5 weeks and weighed for about 13-16 g.
(§5) Grouping and administration scheme: the mice were fed adaptively and divided into a normal control group and a model group which were fed with high-fat feed (Research diets, D 12492). When the fasting blood glucose of the mice was greater than or equal to 7 mM, it was considered that the mice had become DIO mice. The DIO mice could be selected for the hypoglycemic effect test. The DIO mice were stratified and randomly grouped according to the blood glucose and the weight. […] The weight and the fasting blood glucose were measured weekly; the food amount, the remaining food amount and the food intake were recorded; the mice were fasted overnight at the end of administration, the blood was sampled, and the free fatty acid (NEFA), total cholesterol (TCHO), triglyceride (TG), insulin and DPPIV activity were measured by using serum.

[2] = Weight of ICR mice of each group; type: in vivo, CD-1 (ICR) mice; details: individual animals
Procedure: (§1) Experimental animals: CD-1 (ICR) mice aged for 4 weeks and weighed for about 18-22 g.
(§2) Grouping and administration scheme: the mice were fed adaptively, randomly grouped according to the weight on the day before experiment, and fasted overnight. […] After the experimental grouping, the group provided separately for detecting the initial basic value of DPPIV was carried out blood sampling, and other animals were intragastrically administrated with the drug at an administration volume of 10 mL/kg, the blood was sampled after the administration, and all other animals were stimulated with glucose administration; the blood was sampled at 20 min, 40 min, 60 min and 120 min after the glucose administration, respectively, and the plasma concentration and the DPPIV activity were detected by using plasma.

[3] = tested on: DIO mice; test: Long-term administration on DIO mice: serum metabolic parameters (NEFA, TCHO, TG, insulin); type: in vivo, C57BL16 mice; details: end of long-term administration; for Serum NEFA / Serum TCHO / Serum TG / Serum insulin: fasted overnight
From the text: Experimental animals: […] Table 18 was a total data table of the metabolic parameters.

[4] = target: T1, serum DPPIV (Mus musculus, UniProt P28843); test: PK/PD experiment of ICR mice: activity of serum DPPIV; type: in vivo, CD-1 (ICR) mice; parameters: the plasma concentration and the DPPIV activity were detected by using plasma; from tissue; host or cells: blood plasma/serum of CD-1 (ICR) mice after oral dosing; details: ICR mice, 0.1, 0.3, 1 and 3 mg/kg intragastric (FIG. 28)
T1 sequence (P28843 38-760 limits assumed): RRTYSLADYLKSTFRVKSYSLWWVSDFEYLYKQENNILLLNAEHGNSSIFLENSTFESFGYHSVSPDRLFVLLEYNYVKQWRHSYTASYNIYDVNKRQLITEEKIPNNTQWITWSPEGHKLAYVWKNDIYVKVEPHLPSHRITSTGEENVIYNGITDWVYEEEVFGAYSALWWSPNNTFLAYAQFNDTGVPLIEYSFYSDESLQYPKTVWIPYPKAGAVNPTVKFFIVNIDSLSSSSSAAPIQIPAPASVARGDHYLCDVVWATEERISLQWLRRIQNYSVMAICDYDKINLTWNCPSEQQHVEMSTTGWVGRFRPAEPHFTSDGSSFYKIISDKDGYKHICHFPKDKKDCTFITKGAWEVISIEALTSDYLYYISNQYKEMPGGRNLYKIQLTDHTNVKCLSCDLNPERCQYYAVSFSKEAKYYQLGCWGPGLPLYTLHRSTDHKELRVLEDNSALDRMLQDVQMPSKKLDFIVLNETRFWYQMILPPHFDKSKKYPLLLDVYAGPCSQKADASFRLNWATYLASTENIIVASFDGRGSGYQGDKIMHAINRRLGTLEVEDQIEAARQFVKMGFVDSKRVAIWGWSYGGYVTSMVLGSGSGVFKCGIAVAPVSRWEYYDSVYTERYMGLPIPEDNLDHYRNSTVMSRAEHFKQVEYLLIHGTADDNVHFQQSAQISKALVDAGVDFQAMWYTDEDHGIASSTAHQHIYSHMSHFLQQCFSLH
Procedure: as §1, §2

[5] = PK/PD experiment of ICR mice: plasma concentration; type: in vivo, CD-1 (ICR) mice; details: CD-1 (ICR), mouse; for AUC: read-out: Drug exposure (AUCeff0-3 h)
Procedure: as §1, §2
Research on pharmacodynamics-plasma concentration correlation: blood samples were collected at time points of 1 h, 1.33 h, 1.67 h, 2 h and 3 h after administration, and the plasma concentration was measured. The drug exposure value (AUCeff0-3h) of the DPPIV-P1 increased with the increase of dose, which was 16.09 ng·h/mL, 52.65 ng·h/mL, 162.3 ng·h/mL and 542.28 ng·h/mL, respectively.

[6] = mouse, in vivo, po
Procedure: as §3, §4, §5

[7] = target: T1, serum DPPIV; test: Long-term administration on DIO mice: inhibition of serum DPPIV; type: in vivo, C57BL16 mice; parameters: from tissue; host or cells: serum of diet-induced obese C57BL mice after 28 days of oral dosing; details: after long-term administration
From the text: Table 18 was a total data table of the metabolic parameters.

[8] = Dynamic vapor sorption (DVS); type: physicochemical
Procedure: Dynamic vapor sorption (DVS): Dynamic vapor sorption (DVS) curves were acquired by DVS Intrinsic of SMS (Surface Measurement Systems). The relative humidity at 25° C. was corrected by deliquescence points of LiCl, Mg(NO3)2 and KCl.
The crystal form B of phosphate prepared in this example was put into a 1.5 mL small bottle and the small bottles was placed under different conditions: 40° C./75% RH or 25° C./60% RH for one week in an open state, or 80° C. for 24 h. The obtained samples were subjected to XRPD test and HPLC test, and the sealed samples placed at 5° C. were used as reference samples (Initial) for HPLC purity test. […] The weight gain at 25° C./80% RH is 6.5% compared to 0% RH.

Structure (SMILES): C[C@@H]1c2cnc(C(F)(F)F)n2CCN1C(=O)C[C@H](N)Cc1cc(F)c(F)cc1F [DPPIV-P1, (8R)-7-[(3R)-3-amino-1-oxo-4-(2,4,5-trifluorophenyl)butyl]-5,6,7,8-tetrahydro-8-methyl-3-(trifluoromethyl)imidazo[1,5-a]pyrazine]
- Food intake ([1]; 0.3 mg/kg): 2.2 ± 0.3 g/day
- weight ([1]; 0.3 mg/kg daily, D1): 38.9 ± 3.8 g
- weight ([1]; 0.3 mg/kg daily, D7): 37.4 ± 3.4 g
- weight ([1]; 0.3 mg/kg daily, D14): 38.2 ± 4.2 g
- weight ([1]; 0.3 mg/kg daily, D21): 40.2 ± 4.2 g
- weight ([1]; 0.3 mg/kg daily, D28): 39.5 ± 5.0 g
- weight ([1]; 0.3 mg/kg, total data table of metabolic parameters (end of experiment)): 39.5 ± 5.0 g
- Food intake ([1]; 3 mg/kg): 2.2 ± 0.3 g/day
- weight ([1]; 3 mg/kg daily, D1): 41.5 ± 3.5 g
- weight ([1]; 3 mg/kg daily, D7): 40.9 ± 4.2 g
- weight ([1]; 3 mg/kg daily, D14): 43.1 ± 4.9 g
- weight ([1]; 3 mg/kg daily, D21): 44.2 ± 5.1 g
- weight ([1]; 3 mg/kg daily, D28): 45.0 ± 5.4 g
- weight ([1]; 3 mg/kg, total data table of metabolic parameters (end of experiment)): 45.0 ± 5.4 g
- Food intake ([1]; 30 mg/kg): 2.2 ± 0.4 g/day
- weight ([1]; 30 mg/kg daily, D1): 41.5 ± 3.1 g
- weight ([1]; 30 mg/kg daily, D7): 40.5 ± 3.0 g
- weight ([1]; 30 mg/kg daily, D14): 41.2 ± 4.4 g
- weight ([1]; 30 mg/kg daily, D21): 41.3 ± 3.5 g
- weight ([1]; 30 mg/kg daily, D28): 42.9 ± 5.6 g
- weight ([1]; 30 mg/kg, total data table of metabolic parameters (end of experiment)): 42.9 ± 5.6 g
- weight after the drug was administrated for 28 days ([1]; 0.3 mg/kg): 39.9 (2×) and 31.0 and 34.8 and 41.6 and 32.2 and 40.5 and 40.8 and 45.6 and 47.1 and 41.0
- weight after the drug was administrated for 28 days ([1]; 3 mg/kg): 46.8 (2×) and 42.6 and 54.1 and 48.3 and 34.4 and 42.2 and 43.1 and 46.4 and 39.7 and 50.2
- weight after the drug was administrated for 28 days ([1]; 30 mg/kg, in g): 46.6 and 36.5 and 43.6 and 36.8 and 36.7 and 39.3 and 38.7 and 48.2 and 51.8 and 48.6 and 41.0
- weight ([2]; 0.1 mg/kg group, 0.1 mg/kg, in g (unit assumed)): 22.0 and 24.5 and 24.7 and 25.1 and 26.3 and 26.9 and 24.6 and 23.4 and 24.4 and 25.0 and 23.0 and 24.8 and 24.9 and 26.2 and 24.2
- weight ([2]; 0.3 mg/kg group, 0.3 mg/kg): 25.3 (2×) and 24.0 and 24.1 and 23.9 and 24.9 (2×) and 24.6 and 26.4 and 26.0 and 25.5 and 22.0 and 22.6 and 25.0 and 24.4
- weight ([2]; 1 mg/kg group, 1 mg/kg): 26.9 and 25.1 (2×) and 23.5 and 23.6 (2×) and 24.9 (2×) and 24.8 and 26.1 and 25.8 and 26.4 and 25.2 and 22.4 and 23.4
- weight ([2]; 3 mg/kg group, 3 mg/kg, in g (unit assumed)): 25.0 and 24.8 and 23.0 and 25.4 and 21.7 and 27.3 and 22.3 and 22.4 and 25.7 and 24.0 and 23.3 and 24.1 and 25.2 and 27.2 and 24.5
- decrease of insulin compared with the model control group ([3]; 0.3 mg/kg): 28.3%
- Serum NEFA ([3]; 0.3 mg/kg): 1.21 ± 0.07 mmol/L
- Serum TCHO ([3]; 0.3 mg/kg): 5.01 ± 0.58 mmol/L
- Serum TG ([3]; 0.3 mg/kg): 1.04 ± 0.13 mmol/L
- Serum insulin ([3]; 0.3 mg/kg): 3.2 ± 2.44 ng/mL
- Serum NEFA ([3]; 3 mg/kg): 1.08 ± 0.14 mmol/L
- Serum TCHO ([3]; 3 mg/kg): 5.06 ± 0.65 mmol/L
- Serum TG ([3]; 3 mg/kg): 0.94 ± 0.15 mmol/L
- Serum insulin ([3]; 3 mg/kg): 4.7 ± 3.55 ng/mL
- decrease of total cholesterol (TCHO) compared with the model control group ([3]; 30 mg/kg): 18.4%
- Serum NEFA ([3]; 30 mg/kg): 1.01 ± 0.11 mmol/L
- Serum TCHO ([3]; 30 mg/kg): 4.36 ± 0.45 mmol/L
- Serum TG ([3]; 30 mg/kg): 0.83 ± 0.11 mmol/L
- Serum insulin ([3]; 30 mg/kg): 4.9 ± 4.04 ng/mL
- influence on the activity of serum DPPIV [4]: good dose-effect relationship
- concentration at 1 h ([5]; oral dose 0.1 mg/kg): 8.28 ± 0.96 ng/mL
- concentration at 1.33 h ([5]; oral dose 0.1 mg/kg): 6.51 ± 1.58 ng/mL
- concentration at 1.67 h ([5]; oral dose 0.1 mg/kg): 6.46 ± 0.2 ng/mL
- concentration at 2 h ([5]; oral dose 0.1 mg/kg): 5.73 ± 0.65 ng/mL
- concentration at 3 h ([5]; oral dose 0.1 mg/kg): 4.85 ± 0.25 ng/mL
- AUC ([5]; oral dose 0.1 mg/kg): 16.1 ng·h/mL
- concentration at 1 h ([5]; oral dose 0.3 mg/kg): 26.4 ± 6.47 ng/mL
- concentration at 1.33 h ([5]; oral dose 0.3 mg/kg): 25 ± 3.42 ng/mL
- concentration at 1.67 h ([5]; oral dose 0.3 mg/kg): 17.9 ± 2.43 ng/mL
- concentration at 2 h ([5]; oral dose 0.3 mg/kg): 20.5 ± 0.32 ng/mL
- concentration at 3 h ([5]; oral dose 0.3 mg/kg): 14.2 ± 1.48 ng/mL
- AUC ([5]; oral dose 0.3 mg/kg): 52.6 ng·h/mL
- concentration at 1 h ([5]; oral dose 1 mg/kg): 72.8 ± 7.04 ng/mL
- concentration at 1.33 h ([5]; oral dose 1 mg/kg): 71.9 ± 2.71 ng/mL
- concentration at 1.67 h ([5]; oral dose 1 mg/kg): 75.2 ± 6.09 ng/mL
- concentration at 2 h ([5]; oral dose 1 mg/kg): 57.9 ± 2.06 ng/mL
- concentration at 3 h ([5]; oral dose 1 mg/kg): 52.2 ± 5.54 ng/mL
- AUC ([5]; oral dose 1 mg/kg): 162 ng·h/mL
- concentration at 1 h ([5]; oral dose 3 mg/kg): 231 ± 16.6 ng/mL
- concentration at 1.33 h ([5]; oral dose 3 mg/kg): 292 ± 47.2 ng/mL
- concentration at 1.67 h ([5]; oral dose 3 mg/kg): 242 ± 17.7 ng/mL
- concentration at 2 h ([5]; oral dose 3 mg/kg): 201 ± 44.7 ng/mL
- concentration at 3 h ([5]; oral dose 3 mg/kg): 151 ± 26.4 ng/mL
- AUC ([5]; oral dose 3 mg/kg): 542 ng·h/mL
- tolerance after long-term administration [6]: good in tolerance and not easy to induce hypoglycemia
- inhibition effect on the serum DPPIV compared with sitagliptin phosphate [7]: obviously higher than that of sitagliptin phosphate
- inhibition at 0.3 mg/kg ([7]; mouse, 0.3 mg/kg, vs model control group, read-out: inhibition rate against DPPIV (serum)): 47.1%
- inhibition at 3 mg/kg ([7]; mouse, 3 mg/kg, vs model control group, read-out: inhibition rate against DPPIV (serum)): 82.7%
- inhibition at 30 mg/kg ([7]; mouse, 30 mg/kg, vs model control group, read-out: inhibition rate against DPPIV (serum)): 95.3%
- weight gain (DVS) ([8]; 25° C./80% RH compared to 0% RH): 6.5%
- crystal form before and after the DVS test (XRPD) ([8]; after DVS test): the crystal form remained unchanged

Reference: US11046701B2, “Salt of cetagliptin, preparation method thereof, pharmaceutical composition, and use thereof” (CGENETECH (SUZHOU, CHINA) CO., LTD., priority 2018, dated 2021)
